Source: PubChem BioAssay AID1963844 (Molecular Pharmacology Branch, DTP, NCI, 2024)

Test system: 422866-222-R5-J1-PDC complex spheroid viability
Experiment: Anticancer human tumor 422866-222-R5-J1-PDC patient-derived pancreatic adenocarcinoma cell line growth inhibition [POLQ]
Settings: for IC50: curve of first compound; for viability, T/C: stronger effect = lower value
How it was run: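 PDC + HUVEC + MSC complex spheroids; POLQ inhibitors ± partner drugs; top conc. at/near clinical Cmax, else 10 microM (SN-38 1 microM), half-log dilutions; 37 degrees C, 5% CO2.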

[1] = second compound 0.0316 µM, first compound 0.0316 µM
[2] = second compound 0.0316 µM, first compound 0.1 µM
[3] = second compound 0.0316 µM, first compound 0.316 µM
[4] = second compound 0.0316 µM, first compound 1 µM
[5] = second compound 0.0316 µM, first compound 3.16 µM
[6] = second compound 0.0316 µM, first compound 10 µM
[7] = second compound 0.1 µM, first compound 0.0316 µM
[8] = second compound 0.1 µM, first compound 0.1 µM
[9] = second compound 0.1 µM, first compound 0.316 µM
[10] = second compound 0.1 µM, first compound 1 µM
[11] = second compound 0.1 µM, first compound 3.16 µM
[12] = second compound 0.1 µM, first compound 10 µM
[13] = second compound 0.316 µM, first compound 0.0316 µM
[14] = second compound 0.316 µM, first compound 0.1 µM
[15] = second compound 0.316 µM, first compound 0.316 µM
[16] = second compound 0.316 µM, first compound 1 µM
[17] = second compound 0.316 µM, first compound 3.16 µM
[18] = second compound 0.316 µM, first compound 10 µM
[19] = second compound 1 µM, first compound 0.0316 µM
[20] = second compound 1 µM, first compound 0.1 µM
[21] = second compound 1 µM, first compound 0.316 µM
[22] = second compound 1 µM, first compound 1 µM
[23] = second compound 1 µM, first compound 3.16 µM
[24] = second compound 1 µM, first compound 10 µM
[25] = second compound 3.16 µM, first compound 0.0316 µM
[26] = second compound 3.16 µM, first compound 0.1 µM
[27] = second compound 3.16 µM, first compound 0.316 µM
[28] = second compound 3.16 µM, first compound 1 µM
[29] = second compound 3.16 µM, first compound 3.16 µM
[30] = second compound 3.16 µM, first compound 10 µM
[31] = second compound 10 µM, first compound 0.0316 µM
[32] = second compound 10 µM, first compound 0.1 µM
[33] = second compound 10 µM, first compound 0.316 µM
[34] = second compound 10 µM, first compound 1 µM
[35] = second compound 10 µM, first compound 3.16 µM
[36] = second compound 10 µM, first compound 10 µM
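Further: spheroids exposed to compounds for one week before readout.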
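Wherever viability, T/C is given: percent of DMSO vehicle wells luminescence so 100% = untreated viability.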

CCc1cc2c(N3CCc4c(cc(Cn5ccnc5)cc4-c4cn(C)nc4C(F)(F)F)C3=O)cc(C)nc2c(OC)n1 + COC1C(OC(N)=O)C(O)C(Oc2ccc3c(O)c(NC(=O)c4ccc(O)c(CC=C(C)C)c4)c(=O)oc3c2C)OC1(C)C
IC50 (second compound 0.0316 µM): > 10 µM
IC50 (second compound 0.1 µM): > 10 µM
IC50 (second compound 0.316 µM): > 10 µM
IC50 (second compound 1 µM): > 10 µM
IC50 (second compound 3.16 µM): > 10 µM
IC50 (second compound 10 µM): > 10 µM
viability, T/C [1]: 96.1%
viability, T/C [2]: 95.7%
viability, T/C [3]: 92.4%
viability, T/C [4]: 129%
viability, T/C [5]: 125%
viability, T/C [6]: 119%
viability, T/C [7]: 100%
viability, T/C [8]: 88.8%
viability, T/C [9]: 94.6%
viability, T/C [10]: 126%
viability, T/C [11]: 110%
viability, T/C [12]: 93.7%
viability, T/C [13]: 93.7%
viability, T/C [14]: 94.5%
viability, T/C [15]: 108%
viability, T/C [16]: 102%
viability, T/C [17]: 102%
viability, T/C [18]: 111%
viability, T/C [19]: 97.7%
viability, T/C [20]: 98%
viability, T/C [21]: 96.5%
viability, T/C [22]: 92.8%
viability, T/C [23]: 121%
viability, T/C [24]: 108%
viability, T/C [25]: 102%
viability, T/C [26]: 101%
viability, T/C [27]: 123%
viability, T/C [28]: 106%
viability, T/C [29]: 123%
viability, T/C [30]: 116%
viability, T/C [31]: 102%
viability, T/C [32]: 85.6%
viability, T/C [33]: 106%
viability, T/C [34]: 95.1%
viability, T/C [35]: 109%
viability, T/C [36]: 102%

CCc1cc2c(N3CCc4c(cc(Cn5ccnc5)cc4-c4cn(C)nc4C(F)(F)F)C3=O)ccnc2c(OC)n1 + COC1C(OC(N)=O)C(O)C(Oc2ccc3c(O)c(NC(=O)c4ccc(O)c(CC=C(C)C)c4)c(=O)oc3c2C)OC1(C)C
IC50 (second compound 0.0316 µM): > 10 µM
IC50 (second compound 0.1 µM): > 10 µM
IC50 (second compound 0.316 µM): > 10 µM
IC50 (second compound 1 µM): > 10 µM
IC50 (second compound 3.16 µM): > 10 µM
IC50 (second compound 10 µM): > 10 µM
viability, T/C [1]: 95.3%
viability, T/C [2]: 92.8%
viability, T/C [3]: 108%
viability, T/C [4]: 119%
viability, T/C [5]: 113%
viability, T/C [6]: 116%
viability, T/C [7]: 92.8%
viability, T/C [8]: 108%
viability, T/C [9]: 116%
viability, T/C [10]: 104%
viability, T/C [11]: 110%
viability, T/C [12]: 111%
viability, T/C [13]: 104%
viability, T/C [14]: 91%
viability, T/C [15]: 92.2%
viability, T/C [16]: 101%
viability, T/C [17]: 112%
viability, T/C [18]: 124%
viability, T/C [19]: 86.6%
viability, T/C [20]: 91.4%
viability, T/C [21]: 102%
viability, T/C [22]: 100%
viability, T/C [23]: 115%
viability, T/C [24]: 124%
viability, T/C [25]: 91.9%
viability, T/C [26]: 105%
viability, T/C [27]: 129%
viability, T/C [28]: 114%
viability, T/C [29]: 105%
viability, T/C [30]: 114%
viability, T/C [31]: 93%
viability, T/C [32]: 98.1%
viability, T/C [33]: 105%
viability, T/C [34]: 109%
viability, T/C [35]: 105%
viability, T/C [36]: 122%

COc1cc2cc(C(=O)CCC(=O)O)sc2cc1OC + COC1C(OC(N)=O)C(O)C(Oc2ccc3c(O)c(NC(=O)c4ccc(O)c(CC=C(C)C)c4)c(=O)oc3c2C)OC1(C)C
IC50 (second compound 0.0316 µM): > 10 µM
IC50 (second compound 0.1 µM): > 10 µM
IC50 (second compound 0.316 µM): > 10 µM
IC50 (second compound 1 µM): > 10 µM
IC50 (second compound 3.16 µM): > 10 µM
IC50 (second compound 10 µM): > 10 µM
viability, T/C [1]: 102%
viability, T/C [2]: 104%
viability, T/C [3]: 87.3%
viability, T/C [4]: 114%
viability, T/C [5]: 94.2%
viability, T/C [6]: 106%
viability, T/C [7]: 114%
viability, T/C [8]: 95.8%
viability, T/C [9]: 93.8%
viability, T/C [10]: 105%
viability, T/C [11]: 88.1%
viability, T/C [12]: 102%
viability, T/C [13]: 98.8%
viability, T/C [14]: 95%
viability, T/C [15]: 110%
viability, T/C [16]: 93.4%
viability, T/C [17]: 93.8%
viability, T/C [18]: 106%
viability, T/C [19]: 104%
viability, T/C [20]: 96.8%
viability, T/C [21]: 94.4%
viability, T/C [22]: 102%
viability, T/C [23]: 92.7%
viability, T/C [24]: 115%
viability, T/C [25]: 99.1%
viability, T/C [26]: 102%
viability, T/C [27]: 107%
viability, T/C [28]: 103%
viability, T/C [29]: 92.5%
viability, T/C [30]: 134%
viability, T/C [31]: 97.2%
viability, T/C [32]: 104%
viability, T/C [33]: 105%
viability, T/C [34]: 99%
viability, T/C [35]: 94.8%
viability, T/C [36]: 122%

O=C(Nc1ccc(O)c(NS(=O)(=O)c2ccc(F)cc2)c1)c1ccc(-c2ccccc2)cc1 + COC1C(OC(N)=O)C(O)C(Oc2ccc3c(O)c(NC(=O)c4ccc(O)c(CC=C(C)C)c4)c(=O)oc3c2C)OC1(C)C
IC50 (second compound 0.0316 µM): > 10 µM
IC50 (second compound 0.1 µM): > 10 µM
IC50 (second compound 0.316 µM): > 10 µM
IC50 (second compound 1 µM): > 10 µM
IC50 (second compound 3.16 µM): > 10 µM
IC50 (second compound 10 µM): > 10 µM
viability, T/C [1]: 99.6%
viability, T/C [2]: 101%
viability, T/C [3]: 77.7%
viability, T/C [4]: 94.6%
viability, T/C [5]: 96.1%
viability, T/C [6]: 126%
viability, T/C [7]: 92.2%
viability, T/C [8]: 87.3%
viability, T/C [9]: 83.3%
viability, T/C [10]: 95.2%
viability, T/C [11]: 88.8%
viability, T/C [12]: 133%
viability, T/C [13]: 92.4%
viability, T/C [14]: 88%
viability, T/C [15]: 84%
viability, T/C [16]: 99.5%
viability, T/C [17]: 93%
viability, T/C [18]: 123%
viability, T/C [19]: 106%
viability, T/C [20]: 95%
viability, T/C [21]: 83.7%
viability, T/C [22]: 84.9%
viability, T/C [23]: 97.7%
viability, T/C [24]: 125%
viability, T/C [25]: 93.8%
viability, T/C [26]: 100%
viability, T/C [27]: 103%
viability, T/C [28]: 89.2%
viability, T/C [29]: 103%
viability, T/C [30]: 124%
viability, T/C [31]: 95.8%
viability, T/C [32]: 80.9%
viability, T/C [33]: 87.4%
viability, T/C [34]: 85%
viability, T/C [35]: 96.4%
viability, T/C [36]: 133%
